Data taken from US20120046273A1, “COMPOUNDS AND COMPOSITIONS FOR COGNITION-ENHANCEMENT, METHODS OF MAKING, AND METHODS OF TREATING” (MITHRIDION, INC., priority 2009, published 2012).
Entries after “also recorded” stand apart in the source; their conditions may differ. Read-outs that look alike come from different tables or passages of the source.

Assays:
human FMO1 Supersomes = target: T1, human FMO1 Supersomes (Homo sapiens, UniProt Q01740); test: Metabolism by flavin monoxygenase 1 (FMO1) Supersomes; format: in vitro ADME
T1 construct: purchased BD Biosciences 456241
T1 sequence (Q01740 1-532): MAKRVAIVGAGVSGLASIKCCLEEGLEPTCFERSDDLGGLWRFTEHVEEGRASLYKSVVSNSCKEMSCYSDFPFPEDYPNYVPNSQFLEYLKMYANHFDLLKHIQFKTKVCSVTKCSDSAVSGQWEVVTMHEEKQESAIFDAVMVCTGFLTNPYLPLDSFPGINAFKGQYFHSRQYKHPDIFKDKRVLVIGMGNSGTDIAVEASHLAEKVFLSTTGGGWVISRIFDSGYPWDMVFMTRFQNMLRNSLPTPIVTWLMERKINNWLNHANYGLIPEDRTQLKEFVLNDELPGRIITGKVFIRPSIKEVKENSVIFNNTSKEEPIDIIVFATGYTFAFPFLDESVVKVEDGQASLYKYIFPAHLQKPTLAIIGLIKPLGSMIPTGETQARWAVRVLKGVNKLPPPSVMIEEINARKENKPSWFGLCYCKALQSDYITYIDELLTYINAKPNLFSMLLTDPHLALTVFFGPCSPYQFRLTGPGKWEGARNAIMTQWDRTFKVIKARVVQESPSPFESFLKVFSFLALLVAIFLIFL
Experimental: […] Aliquots were removed every 10 minutes, and 1% formic acid was added to halt the reaction. Samples were centrifuged, filtered through 0.2 micron spinfilter and the amount of each compound in the supernatants was quantitated using LC/MS/MS.

[1] = target: T2, human muscarinic M1 receptors (Homo sapiens, UniProt P11229); test: Inositol phosphate production in huM1/A9L cells (IPOne TR-FRET); format: cell-based; details: for huM1/A9L Smax: percentage of maximal stimulation by carbachol; for huM1/A9L ED50 relative to CCh: potency relative to carbachol
T2 construct: expressed in transfected cells; host or cells: A9L cells (gift from Professor W Messer)
T2 sequence (P11229 1-460): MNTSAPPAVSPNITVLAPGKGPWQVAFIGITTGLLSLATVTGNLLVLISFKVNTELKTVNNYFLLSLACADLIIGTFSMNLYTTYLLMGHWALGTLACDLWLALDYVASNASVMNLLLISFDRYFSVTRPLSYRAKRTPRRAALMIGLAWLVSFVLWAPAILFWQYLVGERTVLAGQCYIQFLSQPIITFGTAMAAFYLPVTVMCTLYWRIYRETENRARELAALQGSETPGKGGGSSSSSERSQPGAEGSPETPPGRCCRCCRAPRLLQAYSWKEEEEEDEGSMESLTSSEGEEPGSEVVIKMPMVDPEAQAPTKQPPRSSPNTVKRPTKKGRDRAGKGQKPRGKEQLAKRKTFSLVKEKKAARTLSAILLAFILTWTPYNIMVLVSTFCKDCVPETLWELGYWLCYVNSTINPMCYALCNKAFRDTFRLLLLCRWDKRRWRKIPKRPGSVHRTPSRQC
Experimental: (§1) Muscarinic M1 and M3 agonist activity was evaluated by measuring the stimulation of inositol phosphate (IP) production in the presence of lithium chloride from A9L cells transfected with expression plasmids containing human muscarinic M1 and M3 receptors, respectively. The cell lines were a gift from Professor W Messer, and the methods were as described in Tejada F R et al. J. Med. Chem. 2006; 49: 7518-31 except that the assay was scaled down to run in 384 well plates, and IP was measured in the cell lysates using the non-isotopic IPOne TR-FRET assay (CIS-BIO, Inc).
(§2) Cells were grown to 90% confluence in 384 well hi-base plates (Greiner Bio-One), compounds were added at suitable concentrations in growth medium containing 10 mM LiCL, buffered with an extra 10 mM HEPES (pH7.4), and incubated for 60 minutes at 37° C. Cells were lysed and assayed for IP following the manufacturer's instructions.
(§3) The value for a full agonist is 100%, while partial agonists give values below 100%.

[2] = system: apomorphine induced climbing; test: Apomorphine induced climbing model of psychosis; format: in vivo, CD-I mice; details: mice, sc
Experimental: As described in Costall et. al. European Journal of Pharmacology 1978, 50, 39. individual CD-I mice, 1-2 months old, were placed in a cylindrical wire mesh cage (13.2 cm high×13.2 cm diameter) constructed of steel wire 1 mm thick spaced at 1.2 cm^2. Cylinders were placed in a standard OptiMICE mouse cage (29×32×9×29 cm wide and 14 cm high) with adequate wood chip bedding provided. Observations of climbing (defined as 3 or more paws off the ground) were carried out every 5 minutes at a duration of 1 minute for 30 minutes. Animals were injected subcutaneously under isoflurane anesthesia with test compounds, reference compounds, which included clozapine, haloperidol, olanzapine and xanomeline, or PBS as a control. This was followed 5 minutes later by 2 mg/kg apomorphine hydrochloride. All drugs were dissolved in PBS or a mixture of (by volume) 96% PBS and 4% hydroxypropyl-beta-cyclodextrin, and dosed at a rate of 5 ml per kilogram of body weight. Following injections, animals were replaced in the mesh cages and observed for climbing (defined as 3 or more paws off the ground) every 5 minutes for a duration of 1 minute for 60 minutes after dosing.

[3] = system: pooled male human liver microsomes; test: Metabolism by human liver microsomes; format: in vitro ADME; details: 6 hours incubation
Experimental: Compounds were incubated with pooled male human liver microsomes (BD Biosciences, #452172) and an NADP-regenerating system in a phosphate buffer (pH 7.4) for a total of 6 hours. Aliquots were removed every 2 hours, and 1% formic acid was added to halt the reaction. Samples were centrifuged, filtered through 0.2 micron spinfilter and the amount of each compound in the supernatants was quantitated using LC/MS/MS.

[4] = target: T3, human muscarinic M3 receptors (Homo sapiens, UniProt P20309); test: Inositol phosphate production in huM3/A9L cells (IPOne TR-FRET); format: cell-based; details: for huM3/A9L Smax: percentage of maximal stimulation by carbachol; for huM3/A9L ED50 relative to CCh: potency relative to carbachol
T3 construct: expressed in transfected cells; host or cells: A9L cells (gift from Professor W Messer)
Experimental: as §1, §2, §3

[5] = system: pooled male Sprague-Dawley rat liver microsomes; test: Metabolism by rat liver microsomes; format: in vitro ADME; details: 6 hours incubation
Experimental: Compounds were incubated with pooled male Sprague-Dawley rat liver microsomes (BD Biosciences, #452501) and an NADP-regenerating system in a phosphate buffer (pH 7.4) for a total of 6 hours. Aliquots were removed every 2 hours, and 1% formic acid was added to halt the reaction. Samples were centrifuged, filtered through 0.2 micron spinfilter and the amount of each compound in the supernatants was quantitated using LC/MS/MS.

[6] = system: salivary gland inositol phosphate signaling pathway; test: In vivo tissue inositol phosphate signaling pathway activation, salivary gland; design: species or system rat; details: for block of increase in salivary gland inositol phosphate caused by 82: 1 mg/kg of 82; for inhibition of salivary gland inositol phosphate response to MCD-386: 50 mg/kg MCD-386, antagonist 0.3 mg/kg
Experimental: (§4) Experimental compounds or drug substances were administered using standard techniques to Long Evans Hooded rats weighing 225 to 350 grams, and which had been pretreated with a subcutaneous injection of lithium chloride at a suitable dose between 3 and 10 mmoles per kg. At suitable times the animals were briefly anesthetized using 5% isoflurane and euthanized by decapitation. The brains and submaxillary salivary glands were rapidly dissected out, and the hippocampuses were dissected from the brains. The dissected tissues were homogenized in a suitable volume of ice-cold phosphate-buffered saline containing 10 mM lithium chloride, pH7.4, using a tissue homogenizer, and used immediately or frozen in aliquots at −80degC. for future use. The concentration of inositol-1-phosphate was determined in the homogenates using the IPOne TR-FRET assay (CisBio cat no 621PAPEB), following the manufacturer's instruction

anesthetized rats = test: Salivation on iontophoretic transdermal delivery of agonist and antagonist from one patch; format: in vivo, rat; details: patch with 1 mg of 82 plus 0.01mg antagonist
Experimental: Experimental compounds and drug substances were delivered transdermally in rats using iontophoresis as follows. The fur was shaved from the backs of Long Evans Hooded rats weighing 225 to 325 grams, using electric clippers. Experimental compounds and drug substances were formulated at suitable concentrations an aqueous mixture of the following composition:
The polyvinyl alcohol/water was heated to 95 degC. until it became clear, then the other constituents were added and mixed well. The mixture was introduced into suitable molds containing a disc-shaped cavity 2.2 cm diameter and 2.2 mm deep. Molds may be fabricated using two glass sheets separated by a silicone rubber sheet with suitable sized cavities and filling ports cut-outs. The molds were subject to 3 freeze-thaw cycles at −80degC. and 20degC. until a firm cryogel was obtained. The gels were separated from the molds and trimmed into a circular shape. The gel was placed in a silicone rubber casing with one face in contact with a circular silver foil anodic electrode (22 mm dia/250 microns thick), and the assembly was placed on the shaved skin of the rat such that the other face was in contact with the skin on one side of the back of the rat. The rubber casing formed a seal over and around the gel/electrode assembly. […] This was placed on the other side of the shaved back of the rat, the edges of the gel discs being about 20 mm apart at their nearest point. A DC voltage was applied across the two patches from a constant-current DC power supply and the voltage adjusted to obtain the desired current, such that the skin of the animal completed the electrical circuit.
The devices were placed on shaved backs of anesthetized rats and salivation was measured.
The animals were placed slightly head-down on an inclined, heated ramp. Rectal temperature was monitored using a thermocouple and the temperature of the heating pad was adjusted manually to maintain normal body temperature. Saliva was collected from the mouth by absorption onto pre-weighed slips of filter paper. The filter paper was changed periodically and the amount of saliva was measured by weighing the filter paper slips

[7] = system: hippocampal inositol phosphate signaling pathway; test: In vivo tissue inositol phosphate signaling pathway activation, hippocampus; design: species or system rat; details: 1 mg/kg of 82; antagonist 0.03 mg/kg
Experimental: as §4

[8] = antagonist 0.1 mg/kg (oxybutinin or darifenacin)

T3 sequence (P20309 whole entry): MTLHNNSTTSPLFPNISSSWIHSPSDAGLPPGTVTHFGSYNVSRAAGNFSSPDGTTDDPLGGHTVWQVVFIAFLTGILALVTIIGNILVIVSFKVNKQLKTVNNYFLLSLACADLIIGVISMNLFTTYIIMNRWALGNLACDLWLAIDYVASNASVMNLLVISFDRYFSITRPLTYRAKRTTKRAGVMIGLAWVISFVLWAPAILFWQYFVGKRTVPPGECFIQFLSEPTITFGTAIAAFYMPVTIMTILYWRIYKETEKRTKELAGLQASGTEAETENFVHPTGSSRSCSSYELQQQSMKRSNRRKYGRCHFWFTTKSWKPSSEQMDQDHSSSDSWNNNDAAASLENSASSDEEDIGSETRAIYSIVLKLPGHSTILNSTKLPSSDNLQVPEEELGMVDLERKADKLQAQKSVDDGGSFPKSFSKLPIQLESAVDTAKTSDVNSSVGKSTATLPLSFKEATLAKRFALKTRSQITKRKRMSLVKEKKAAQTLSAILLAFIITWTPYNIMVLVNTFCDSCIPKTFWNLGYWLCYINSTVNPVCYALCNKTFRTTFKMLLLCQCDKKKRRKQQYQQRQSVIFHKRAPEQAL

## Clc1cccc(Cl)c1N=C1NCCN1 [Clonidine, reference compound]
other
  PAMPA (? × 106): 7.95 ? × 106

## [2H]C([2H])([2H])c1noc(C2CCCNC2)n1 (stereo not shown) [Compound 88, 3-D3-Methyl-5-(piperidin-3-yl)-1,2,4-oxadiazole]
Human FMO1 Supersomes
  extent of metabolism in FMO Supersomes: less than half metabolized
[1]
  huM1/A9L Smax: 116%
  huM1/A9L ED50 relative to CCh: + (potency 2-10x CCh)
[2]
  activity in the apomorphine induced climbing model: potent and effective
[3]
  extent of metabolism in human liver microsomes: metabolized significantly less in human liver microsomes than in rat liver microsomes
[4]
  huM3/A9L Smax: 60%
  huM3/A9L ED50 relative to CCh: +/− (potency 0.5-2x CCh)
[5]
  extent of metabolism in rat liver microsomes: far more stable than compounds 126 and 127

## Cc1noc(C2=CCCN(C)C2)n1 [Compound 126, 3-methyl-5-(1-methyl-1,2,5,6-tetrahydropyridin-3-yl)-1,2,4-oxadiazole, reference compound]
Human FMO1 Supersomes
  extent of metabolism in FMO Supersomes: almost completely metabolized; also recorded: nearly completely metabolized
[1]
  potency and efficacy at M1 muscarinic receptors: reasonable potency and efficacy
  selectivity between M1 and M3 receptors: some selectivity for M1 versus M3 receptors
  huM1/A9L ED50 relative to CCh: + (potency 2-10x CCh)
[3]
  extent of metabolism in human liver microsomes: nearly completely metabolized
PAMPA test
  PAMPA (? × 106): 12.75 ? × 106
  rate of crossing the lipid layer in the PAMPA test: slightly better
[4]
  huM3/A9L ED50 relative to CCh: + (potency 2-10x CCh)
[5]
  extent of metabolism in rat liver microsomes: nearly completely metabolized

## Cc1noc(C2CN3CCC2CC3)n1 (stereo not shown) [Compound 127, 3-methyl-5-(quinuclidin-3-yl)-1,2,4-oxadiazole, reference compound]
Human FMO1 Supersomes
  extent of metabolism in FMO Supersomes: almost completely metabolized
[1]
  selectivity between M1 and M3 receptors: essentially non-selective
  huM1/A9L Smax: 50-100%
  huM1/A9L ED50 relative to CCh: ++ (potency >10x CCh)
PAMPA test
  PAMPA (? × 106): 3.02 ? × 106
  rate of crossing the lipid layer in the PAMPA test: significantly better
[4]
  huM3/A9L Smax: 50-100%
  huM3/A9L ED50 relative to CCh: ++ (potency >10x CCh)

## NC(=O)C(c1ccccc1)(c1ccccc1)[C@@H]1CCN(CCc2ccc3c(c2)CCO3)C1 [darifenacin]
[6]; [8]
  block of increase in salivary gland inositol phosphate caused by 82: less effective
[6]
  inhibition of salivary gland inositol phosphate response to MCD-386: less effective
Anesthetized rats
  reduction of salivation caused by transdermal iontophoretic delivery of 82: reduced salivation, but were less effective

## C[N+]1(C)CCC(OC(=O)C(O)(c2ccccc2)C2CCCC2)C1 (stereo not shown) [glycopyrrolate]
[6]; antagonist 0.03 mg/kg
  block of increase in salivary gland inositol phosphate caused by 82: can block
[6]
  inhibition of salivary gland inositol phosphate response to MCD-386: virtually completed inhibited
Anesthetized rats
  reduction of salivation caused by transdermal iontophoretic delivery of 82: greatly reduced
[7]
  block of increase in hippocampal inositol phosphate caused by 82: without blocking the increase in hippocampal inositol phosphate

## CCN(CC)CC#CCOC(=O)C(O)(c1ccccc1)C1CCCCC1 (stereo not shown) [oxybutinin]
[6]; [8]
  block of increase in salivary gland inositol phosphate caused by 82: less effective
[6]
  inhibition of salivary gland inositol phosphate response to MCD-386: less effective
Anesthetized rats
  reduction of salivation caused by transdermal iontophoretic delivery of 82: reduced salivation, but were less effective

## CC(C)[N+](C)(CCOC(=O)C1c2ccccc2Oc2ccccc21)C(C)C [propantheline]
[6]; antagonist 0.03 mg/kg
  block of increase in salivary gland inositol phosphate caused by 82: can block
[6]
  inhibition of salivary gland inositol phosphate response to MCD-386: virtually completed inhibited
Anesthetized rats
  reduction of salivation caused by transdermal iontophoretic delivery of 82: greatly reduced
[7]
  block of increase in hippocampal inositol phosphate caused by 82: without blocking the increase in hippocampal inositol phosphate
